According to paper doi:10.1101/2023.10.11.561987v1, “Resolving the pharmacological redox-sensitivity of SARS-CoV-2 PLpro in drug repurposing screening enabled identification of the competitive GRL-0617 binding site inhibitor CPI-169” (biorxiv, 2023):
pIC50: −log10 of the molar value.

Molecular target: T1, SARS-CoV-2 PLpro-NAB (Severe acute respiratory syndrome coronavirus 2, UniProt P0DTD1)
T1 construct: gene rep; nsp3 fragment with PLpro and NAB domains, cut from replicase polyprotein 1a/1ab; His tag removed by TEV; E. coli BL21(DE3), pET24b
Assay: biochemical
Assay type: biochemical

For NC(Cc1cc(O)c(O)cc1O)C(=O)O (racemic) [6-Hydroxy-DL-DOPA], the pIC50 was less than 4.70.

Cc1nc2c(=O)n(C)c(=O)nc-2n(C)n1 [3-Methyl Toxoflavin] was tested, and the IC50 was 0.074 µM.
